Measured values reported in patent US20160115141A1, “CARBOXYLIC ACID DERIVATIVES FOR TREATMENT OF OXIDATIVE STRESS DISORDERS” (EDISON PHARMACEUTICALS, INC., priority 2013, published 2016).

System: FRDA fibroblasts stressed by addition of L-buthionine-(S,R)-sulfoximine (BSO)
Experiment: Rescue of BSO-stressed human dermal fibroblasts from Friedreich's Ataxia patients (Calcein AM viability)
Format: cell-based
Settings: FRDA fibroblasts GM04078, 1 mM BSO, 48 h, average, compounds of the invention
Method: An initial screen was performed to identify compounds effective for the amelioration of redox disorders. Test samples, 4 reference compounds (idebenone, decylubiquinone, Trolox and alpha-tocopherol), and solvent controls were tested for their ability to rescue FRDA fibroblasts stressed by addition of L-buthionine-(S,R)-sulfoximine (BSO), as described in Jauslin et al., Hum. Mol. Genet. 11(24):3055 (2002), Jauslin et al., FASEB J. 17:1972-4 (2003), and International Patent Application WO 2004/003565. […] This specific BSO-mediated cell death can be prevented by administration of antioxidants or molecules involved in the antioxidant pathway, such as alpha-tocopherol, selenium, or small molecule glutathione peroxidase mimetics. However, antioxidants differ in their potency, i.e. the concentration at which they are able to rescue BSO-stressed FRDA fibroblasts.
MEM (a medium enriched in amino acids and vitamins, catalog no. 1-31F24-I) and Medium 199 (M199, catalog no. 1-21F22-I) with Earle's Balanced Salts, without phenol red, were purchased from Bioconcept. Fetal Calf Serum was obtained from PAA Laboratories. Basic fibroblast growth factor and epidermal growth factor were purchased from PeproTech. Penicillin-streptomycin-glutamine mix, L-buthionine (S,R)-sulfoximine, (+)-alpha-tocopherol, decylubiquinone, and insulin from bovine pancreas were purchased from Sigma. Trolox (6-Hydroxy-2,5,7,8-tetramethylchromane-2-carboxylic acid) was obtained from Fluka. Idebenone was obtained from Chemo Iberica. Calcein AM was purchased from Anaspec. Cell culture medium was made by combining 125 ml M199 EBS, 50 ml Fetal Calf Serum, 100 U/ml penicillin, 100 microgram/ml streptomycin, 2 mM glutamine, 10 microgram/ml insulin, 10 ng/ml EGF, and 10 ng/ml bFGF; MEM EBS was added to make the volume up to 500 ml. A 10 mM BSO solution was prepared by dissolving 444 mg BSO in 200 ml of medium (Invitrogen, Carlsbad, Ca.) with subsequent filter-sterilization. During the course of the experiments, this solution was stored at +4° C. […]

Structure (SMILES)	EC50
CCOC(=O)CCC(C)(O)CCC1=C(C)C(=O)C(C)=C(C)C1=O (stereo not drawn)	275 nM
CC1=C(C)C(=O)C(CCC2(C)CCC(=O)O2)=C(C)C1=O (stereo not drawn)	270 nM
CC1=C(C)C(=O)C(CCC(C)(O)CCC(N)=O)=C(C)C1=O (stereo not drawn)	70 nM
